According to the NIST ThermoML archive (doi:10.1016/j.jct.2015.07.047):

Conditions: Liquid, Closed cell (Static) method

Cl[SiH2]Cl [dichlorosilane]
Conditions | vapor or sublimation pressure [kPa]
313.36 K | 290.6
323.35 K | 384.1
333.19 K | 496.6
343.04 K | 631.7
352.98 K | 793.4
362.94 K | 982.4

Cl[Si](Cl)(Cl)Cl [silicon tetrachloride]
Conditions | vapor or sublimation pressure [kPa]
318.27 K | 66.7
328.25 K | 94
338.31 K | 129.8
348.08 K | 172.9
358.17 K | 228.4
368.17 K | 295.3

Cl[SiH](Cl)Cl [trichlorosilane]
Conditions | vapor or sublimation pressure [kPa]
313.34 K | 134.1
323.33 K | 183.5
333.17 K | 245
343 K | 321
352.96 K | 414.5
362.96 K | 528.8
